Measurements as given in ChEMBL document CHEMBL1138084, “Synthesis and SAR of novel histamine H3 receptor antagonists” (Bioorg Med Chem Lett, 2006).
pKi: −log10 of the molar value.

Legend:
Histamine H3 receptor [1] = biological target: Histamine H3 receptor (Homo sapiens, UniProt Q9Y5N1); experiment: Displacement of [3H]N-alpha-methylhistamine from human cloned H3 receptor; details: for pKi: read-out: Ki
Histamine H3 receptor [2] = biological target: Histamine H3 receptor (Rattus norvegicus, UniProt Q9QYN8); experiment: Displacement of [3H]N-alpha-methylhistamine from rat cloned H3 receptor
[3] = Oral bioavailability in rat at 10 mg/kg; format: ADME, organism-based; details: in vivo
[4] = Inhibition of [3H]R-alpha-methylhistamine binding to brain of po dosed rat; format: functional, organism-based

Chain of Histamine H3 receptor (Rattus norvegicus, UniProt Q9QYN8) (Q9QYN8 whole entry): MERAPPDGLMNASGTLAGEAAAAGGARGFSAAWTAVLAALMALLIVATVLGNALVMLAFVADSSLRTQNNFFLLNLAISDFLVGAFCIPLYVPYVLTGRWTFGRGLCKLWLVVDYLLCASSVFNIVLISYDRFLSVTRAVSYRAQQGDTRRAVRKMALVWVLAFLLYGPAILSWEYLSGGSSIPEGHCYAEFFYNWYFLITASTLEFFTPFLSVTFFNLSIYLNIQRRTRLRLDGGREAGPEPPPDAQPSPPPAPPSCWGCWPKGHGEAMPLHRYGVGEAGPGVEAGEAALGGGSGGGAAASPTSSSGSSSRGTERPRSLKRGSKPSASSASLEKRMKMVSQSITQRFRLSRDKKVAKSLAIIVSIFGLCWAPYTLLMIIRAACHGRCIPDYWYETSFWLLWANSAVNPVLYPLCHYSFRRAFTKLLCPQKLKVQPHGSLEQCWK
Chain of Histamine H3 receptor (Homo sapiens, UniProt Q9Y5N1) (Q9Y5N1 whole entry): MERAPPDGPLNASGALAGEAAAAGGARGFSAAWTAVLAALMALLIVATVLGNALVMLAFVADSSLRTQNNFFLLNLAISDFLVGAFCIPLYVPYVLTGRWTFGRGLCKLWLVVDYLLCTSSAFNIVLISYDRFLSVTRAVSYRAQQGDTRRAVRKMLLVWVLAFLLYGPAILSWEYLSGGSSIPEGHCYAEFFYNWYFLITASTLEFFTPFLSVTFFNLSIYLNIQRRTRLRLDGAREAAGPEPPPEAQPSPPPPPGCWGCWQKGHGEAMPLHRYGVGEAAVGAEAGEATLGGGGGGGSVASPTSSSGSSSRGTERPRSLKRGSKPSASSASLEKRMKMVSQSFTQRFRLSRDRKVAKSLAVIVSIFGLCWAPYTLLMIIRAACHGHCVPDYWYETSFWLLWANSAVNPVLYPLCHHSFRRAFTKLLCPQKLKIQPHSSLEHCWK

| Compound | pKi (Histamine H3 receptor [1]) | pKi (Histamine H3 receptor [2]) | further results |
| --- | --- | --- | --- |
| CCN1CCc2ccc(OCCCN3CCCCC3)cc2CC1 | 9.59 | 8.96 |  |
| O=C(c1cccs1)N1CCc2cccc(OCCCN3CCCCC3)c2C1 | < 6.52 |  |  |
| CC(C)N1CCc2ccc(OCCCN3CCCCC3)cc2C1 | 9.77 | 9.05 |  |
| c1cc2c(cc1OCCCN1CCCCC1)CNCC2 | 9.22 |  |  |
| CCN1CCc2cccc(OCCCN3CCCCC3)c2C1 | 7.02 |  |  |
| c1cc2c(c(OCCCN3CCCCC3)c1)CCNC2 | < 6.52 |  |  |
| c1cc2c(cc1OCCCN1CCCCC1)CCNC2 |  |  | Ki (Histamine H3 receptor [1]): 2.4 |
| O=C(c1cccs1)N1CCc2c(cccc2OCCCN2CCCCC2)C1 | < 6.52 |  |  |
| O=S(=O)(c1ccccc1)N1CCCc2cccc(OCCCN3CCCCC3)c21 | < 6.52 |  |  |
| O=S(=O)(c1ccccc1)N1CCc2c(cccc2OCCCN2CCCCC2)C1 | < 6.52 |  |  |
| CC(C)N1CCc2ccc(OCCCN3CCCCC3)cc2CC1 | 9.14 | 8.80 |  |
| CCN1CCCc2c(OCCCN3CCCCC3)cccc21 | < 6.52 |  |  |
| c1cc2c(cc1OCCCN1CCCCC1)N(CC1CCCCC1)CCC2 | 6.73 |  |  |
| CCN1CCCc2ccc(OCCCN3CCCCC3)cc21 | 6.81 |  |  |
| c1cc2c(c(OCCCN3CCCCC3)c1)CCCN2 | < 6.52 |  |  |
| c1cc2c(c(OCCCN3CCCCC3)c1)N(CC1CCCCC1)CCC2 | < 6.52 |  |  |
| CCN1CCc2cc(OCCCN3CCCCC3)ccc2C1 | 9.27 |  |  |
| c1cc2c(c(OCCCN3CCCCC3)c1)CNCC2 | 6.81 |  |  |
| CCN1CCc2c(cccc2OCCCN2CCCCC2)C1 | 7.07 |  |  |
| c1cc2c(c(OCCCN3CCCCC3)c1)NCCC2 | < 6.52 |  |  |
| CCN1CCCc2cccc(OCCCN3CCCCC3)c21 | < 6.52 |  |  |
| CCN1CCc2ccc(OCCCN3CCCCC3)cc2C1 | 9.47 | 9.19 | bioavailability [3]: 69%; IC50 [4]: 1.1 mg/kg |
| O=S(=O)(c1ccccc1)N1CCc2cccc(OCCCN3CCCCC3)c2C1 | < 6.52 |  |  |
| O=C(c1cccs1)N1CCCc2cccc(OCCCN3CCCCC3)c21 | < 6.52 |  |  |

The remaining compounds from weak to strong by pKi (Histamine H3 receptor [1]), led by results:

| pKi (Histamine H3 receptor [1]) | pKi (Histamine H3 receptor [2]) | Compound | further results |
| --- | --- | --- | --- |
| 6.85 |  | c1cc(OCCCN2CCCCC2)c2c(c1)N(CC1CCCCC1)CCC2 |  |
| 6.89 |  | c1cc2c(cc1OCCCN1CCCCC1)NCCC2 |  |
| 7.23 |  | c1cc2c(c(OCCCN3CCCCC3)c1)CN(CC1CCCCC1)CC2 |  |
| 7.27 |  | c1cc2c(cc1OCCCN1CCCCC1)CCCN2 |  |
| 7.37 |  | CC(C)NC(=O)N1CCc2ccc(OCCCN3CCCCC3)cc2CC1 |  |
| 7.39 |  | CCN1CCCc2cc(OCCCN3CCCCC3)ccc21 |  |
| 7.51 |  | c1cc2c(cc1OCCCN1CCCCC1)CCCN2CC1CCCCC1 |  |
| 7.62 | 7.13 | CS(=O)(=O)N1CCc2ccc(OCCCN3CCCCC3)cc2C1 |  |
| 7.65 |  | O=C(c1cccs1)N1CCCc2ccc(OCCCN3CCCCC3)cc21 |  |
| 7.71 | 7.44 | CC(=O)N1CCc2ccc(OCCCN3CCCCC3)cc2C1 |  |
| 7.74 |  | O=S(=O)(c1ccccc1)N1CCCc2cc(OCCCN3CCCCC3)ccc21 |  |
| 7.77 | 7.49 | CC(C)NC(=O)N1CCCc2cc(OCCCN3CCCCC3)ccc2C1 |  |
| 7.81 |  | c1cc2c(c(OCCCN3CCCCC3)c1)CCN(CC1CCCCC1)C2 |  |
| 7.92 | 7.42 | CS(=O)(=O)N1CCc2ccc(OCCCN3CCCCC3)cc2CC1 |  |
| 7.94 | 7.31 | CC(=O)N1CCc2ccc(OCCCN3CCCCC3)cc2CC1 |  |
| 8.09 |  | O=C(c1cccs1)N1CCc2ccc(OCCCN3CCCCC3)cc2C1 |  |
| 8.13 |  | O=S(=O)(c1ccccc1)N1CCc2cc(OCCCN3CCCCC3)ccc2C1 |  |
| 8.14 |  | O=S(=O)(c1ccccc1)N1CCCc2ccc(OCCCN3CCCCC3)cc21 |  |
| 8.31 | 7.40 | CC(C)NC(=O)N1CCc2ccc(OCCCN3CCCCC3)cc2C1 |  |
| 8.54 | 7.15 | CS(=O)(=O)N1CCCc2cc(OCCCN3CCCCC3)ccc2C1 |  |
| 8.68 |  | O=C(c1cccs1)N1CCc2cc(OCCCN3CCCCC3)ccc2C1 |  |
| 9.00 |  | c1cc2c(cc1OCCCN1CCCCC1)CCN(CC1CCCCC1)C2 |  |
| 9.28 | 9.01 | c1cc2c(cc1OCCCN1CCCCC1)CCN(CC1CCCCC1)CC2 |  |
| 9.28 |  | O=S(=O)(c1ccccc1)N1CCc2ccc(OCCCN3CCCCC3)cc2C1 |  |
| 9.46 | 9.34 | c1cc2c(cc1OCCCN1CCCCC1)CN(CC1CCCCC1)CC2 |  |
| 9.47 | 9.25 | CCN1CCCc2cc(OCCCN3CCCCC3)ccc2C1 |  |
| 9.70 | 9.10 | c1ccc(CN2CCCc3cc(OCCCN4CCCCC4)ccc3C2)cc1 |  |
| 9.70 | 8.89 | CC(C)N1CCCc2cc(OCCCN3CCCCC3)ccc2C1 | bioavailability [3]: ≥ 100%; IC50 [4]: 5.3 mg/kg |
